{"source": "patent US10076520B2", "about": "“Use of tyrosine kinase inhibitor in cancer treatment” (THE REGENTS OF THE UNIVERSITY OF COLORADO, A BODY CORPORATE, priority 2013, dated 2018)", "key": {"ParC5 cells": {"system": "ParC5 cells", "assay": "Irradiation-induced apoptosis (caspase-3 activity) in ParC5 cells", "assay_type": "cell-based, rat", "conditions": "parC5 cells pre-treated 30 mins prior to 10 Gy irradiation; harvested after 18 hrs; p<0.05", "method": "Cells were harvested after an additional 18 hrs and casapase 3 activity were measured."}, "PKCδ": {"system": "PKCδ", "assay": "Immunoblot of PKCδ tyrosine phosphorylation in ParC5 cells treated with hydrogen peroxide", "assay_type": "cell-based, rat", "conditions": "ParC5 cells pre-treated 30 mins prior to hydrogen peroxide"}}}
{"smiles": "Cc1ccc(NC(=O)c2ccc(CN3CCN(C)CC3)cc2)cc1Nc1nccc(-c2cccnc2)n1", "note": "[imatinib]", "values": [{"measurement": "apoptosis (caspase 3 activity)", "setting": "ParC5 cells", "value": "significant protection from apoptosis"}, {"measurement": "phosphorylation of PKCδ at Y64, Y155 and Y311", "setting": "PKCδ", "value": "inhibited phosphorylation of PKCδ at Y155 only"}]}
